In patent publication US20200330429A1, “METHOD OF TREATING TRUNCAL ACNE WITH TRIFAROTENE” (priority 2019, published 2020):

What was measured:
moderate facial acne [1] = test: PERFECT 2, 12-week vehicle-controlled study, facial acne efficacy; type: in vivo, human
Procedure: (§1) A multi-center (United States, Canada, Europe and Russia), 12-week, double-blinded, and vehicle controlled group study with a 1:1 randomization pattern (once daily trifarotene 50 μg/g or vehicle cream) was conducted in subjects with moderate facial and truncal acne. Enrolled patients or caregivers received instruction about how to apply a thin layer of study drug daily at bedtime on the face and self-reachable trunk. Patients were also instructed to cleanse the skin and not to apply moisturizer one hour before or one hour after study drug application. Use of moisturizer was encouraged from the initiation of treatment. Investigators could reduce the frequency of application to alternate days for a maximum of 2 weeks in the first 4 weeks following the Baseline visit when needed to manage irritation. The patients were selected based on the following criteria.
(§2) Inclusion Criteria: • 1. Male or female patients 9 years or older. • 2. Moderate facial acne, defined as: Investigator Global Assessment (IGA) score of 3 on the face. Minimum of 20 inflammatory lesions and 25 non-inflammatory lesions on the face at Screening and Baseline • 3. Moderate truncal acne with Physician Global Assessment (PGA) score of 3 at Screening and Baseline. Minimum of 20 inflammatory lesions and 20 non-inflammatory lesions but no more than 100 non-inflammatory lesion counts on the trunk (shoulders, upper back and upper anterior chest) reachable to self-application of study drug by the subject at Screening and Baseline (optional criterion for subject between 9 and 11 years of age). • 4. Accessible treated areas of the trunk were defined for the study. The trunk anatomical region assessment was pre-defined by a size-fitted T-shirt (patent # US00D7580485, Jun. 7, 2016). This ensured consistency for study assessment areas throughout the study duration. • 5. For subjects aged 9 to 11 years, inclusion criteria regarding truncal acne were optional due to relative rarity of trunk involvement (compared with face) in this age group.
Primary Efficacy Endpoints • Success rate, defined as the percentage of subjects who achieved an IGA score on the face of 1 (Almost Clear) or 0 (Clear) and at least a 2-grade improvement from Baseline to Week 12. • Absolute and percent change (supportive efficacy endpoint) in facial inflammatory lesion count from Baseline to Week 12. • Absolute and percent change (supportive efficacy endpoint) in facial non-inflammatory lesion count from Baseline to Week 12.
Severity definitions for IGA and PGA scales [5-point scales ranging from 0 (clear) to 4 (severe)] were the same. Lesion counts were performed and IGA and PGA were assessed at Screening, Baseline, and Weeks 1, 2, 4, 8, and 12/ET visits.
Trifarotene or the vehicle were applied once daily in the evening for 12 weeks. […]

[2] = test system: subjects with moderate facial and truncal acne; test: PERFECT 2 safety: local tolerability and adverse events; type: in vivo, human
Procedure: as §1
(§3) Safety was assessed through adverse events, vital signs and routine laboratory testing. Safety assessments included treatment emergent adverse events (TEAE5), standard laboratory safety tests at screening and last study visit including hematology, blood chemistry, and urinalysis (Barc Central Laboratory, US and Belgium), physical examination, and monitoring of vital signs. Local tolerability signs/symptoms expected with a topical retinoid were collected separately from adverse events to better characterize the tolerability profile of trifarotene cream. These included erythema, scaling, dryness, and stinging/burning scored on a 4-point scale, none=0, mild=1, moderate=2, severe=3. Subjects were specifically queried at each study visit, including Baseline, for the presence of local signs or symptoms. Signs and/or symptoms of local cutaneous irritation assessed with the tolerability scale were considered to be Adverse Events if they were severe enough to lead to permanent discontinuation of study product treatment or required use of concomitant treatment including over-the-counter products (other than moisturizers). Subjects were assessed at screening/baseline and Weeks 1, 2, 4, 8 and 12.
(§4) Trifarotene or the vehicle were applied once daily in the evening for 12 weeks. The liberal use of a non-comedogenic and hypoallergenic moisturizer and non-comedogenic sunscreen was allowed. Trifarotene or the vehicle were not to be applied to cuts, abrasions, eczematous, or sunburned skin.

moderate facial acne [3] = test: PERFECT 1, 12-week vehicle-controlled study, facial acne efficacy; type: in vivo, human
Procedure: as §1
as §2, with “For subjects aged 9 to 11 years, inclusion criteria regarding truncal acne were optional due to relative rarity of trunk involvement (compared with face) in this age group.” left out
(§5) Severity definitions for IGA and PGA scales [5-point scales ranging from 0 (clear) to 4 (severe)] were the same. Lesion counts were performed and IGA and PGA were assessed at Screening, Baseline, and Weeks 1, 2, 4, 8, and 12/ET visits. […]

[4] = hepatic microsomes; cited from earlier work
[5] = test system: subjects with moderate facial and truncal acne; test: PERFECT 1 and PERFECT 2, statements for both studies together; type: in vivo, human
Procedure: Enrolled patients or caregivers received instruction about how to apply a thin layer of study drug daily at bedtime on the face and self-reachable trunk. Patients were also instructed to cleanse the skin and not to apply moisturizer one hour before or one hour after study drug application. Use of moisturizer was encouraged from the initiation of treatment. […] The patients were selected based on the following criteria. […] Lesion counts were performed and IGA and PGA were assessed at Screening, Baseline, and Weeks 1, 2, 4, 8, and 12/ET visits. Safety was assessed through adverse events, vital signs and routine laboratory testing. Safety assessments included treatment emergent adverse events (TEAE5), standard laboratory safety tests at screening and last study visit including hematology, blood chemistry, and urinalysis (Barc Central Laboratory, US and Belgium), physical examination, and monitoring of vital signs. Local tolerability signs/symptoms expected with a topical retinoid were collected separately from adverse events to better characterize the tolerability profile of trifarotene cream. […] Subjects were specifically queried at each study visit, including Baseline, for the presence of local signs or symptoms. Signs and/or symptoms of local cutaneous irritation assessed with the tolerability scale were considered to be Adverse Events if they were severe enough to lead to permanent discontinuation of study product treatment or required use of concomitant treatment including over-the-counter products (other than moisturizers). […] Trifarotene or the vehicle were applied once daily in the evening for 12 weeks. The liberal use of a non-comedogenic and hypoallergenic moisturizer and non-comedogenic sunscreen was allowed. Trifarotene or the vehicle were not to be applied to cuts, abrasions, eczematous, or sunburned skin.

moderate facial acne [6] = test: SATisFy 52-week study, facial acne efficacy and quality of life; type: in vivo, human
Procedure: (§6) A multi-center, 52-week, […] group study (SATisFy) with once daily trifarotene 50 μg/g was conducted in subjects with moderate facial and truncal acne. The screening/baseline weeks were 1, 2, 4, 8, 12, 20, 26, 38 & week 52. Inclusion/exclusion criteria and assessment are as described in Example 1, unless mentioned otherwise. Additional assessments may include subject's facial acne assessment, quality of life (DLQI and CDLQI) and standard facial and trunk photography.
(§7) Efficacy • Success rate: IGA/PGA score of 2 grade in improvement and Clear (0) or Almost Clear (1) • Grade change from baseline of IGA & PGA • Subject's assessment of facial acne improvement.

[7] = test system: subjects with moderate facial and truncal acne; test: PERFECT 1 safety: local tolerability and adverse events; type: in vivo, human
Procedure: as §1, §3, §4

moderate truncal acne [8] = test: PERFECT 1, 12-week vehicle-controlled study, truncal acne efficacy; type: in vivo, human
Procedure: as §1
(§8) Inclusion Criteria: • 1. Male or female patients 9 years or older. • 2. Moderate facial acne, defined as: Investigator Global Assessment (IGA) score of 3 on the face. Minimum of 20 inflammatory lesions and 25 non-inflammatory lesions on the face at Screening and Baseline • 3. […]
as §5

moderate truncal acne [9] = test: PERFECT 2, 12-week vehicle-controlled study, truncal acne efficacy; type: in vivo, human
Procedure: as §1, §8, §5

moderate truncal acne [10] = test: SATisFy 52-week study, truncal acne efficacy; type: in vivo, human
Procedure: as §6, §7

keratinocytes = details: cited from earlier work
[11] = week 12, trunk population, SATisFy
[12] = week 52, trunk population, SATisFy

CC(C)(C)c1cc(-c2cc(-c3ccc(C(=O)O)cc3)ccc2OCCO)ccc1N1CCCC1 [trifarotene, 3″-tert-Butyl-4′-(2-hydroxy-ethoxy)-4″-pyrrolidin-1-yl-[1,1′,3′,1″]terphenyl-4-carboxylic acid]
statistically significant superior facial IGA success rates vs vehicle, at week (moderate facial acne [1]; PERFECT 2): 8 week
Inflammatory Lesions Mean Absolute Change from baseline (moderate facial acne [1]; face, Week 12, PERFECT 2): −24.2
Non-inflammatory Lesions Mean Absolute Change from baseline (moderate facial acne [1]; face, Week 12, PERFECT 2): −30.1
IGA Success (%) (moderate facial acne [1]; face, Week 12, PERFECT 2, 50 μg/g once daily): 42.3%
Severe AEs considered related to trifarotene therapy, subjects [2]: 3 subjects
Severe related AE: application site erosion, number [2]: 1
Severe related AE: application site irritation, number [2]: 1
Severe related AE: application site pain, number [2]: 1
statistically significant superior facial IGA success rates vs vehicle, at week (moderate facial acne [3]; PERFECT 1): 4 week
Inflammatory Lesions Mean Absolute Change from baseline (moderate facial acne [3]; face, Week 12, PERFECT 1): −19.0
IGA Success (%) (moderate facial acne [3]; face, Week 12, PERFECT 1, 50 μg/g once daily): 29.4%
metabolism [4]: rapidly metabolized
changes in vital signs, physical exams and laboratory parameters ([5]; PERFECT 1 and PERFECT 2): no significant clinically relevant changes
serious AEs ([5]; PERFECT 1 and PERFECT 2): no AE was serious
success rates on the trunk statistically significant vs vehicle, starting at week ([5]; both studies): 8 week
facial lesion count reductions, statistical differences vs vehicle apparent as early as week ([5]; face): 1-2 week
success rates, facial acne (moderate facial acne [6]; Wk12 (166/401)): 41.4%
success rates, facial acne (moderate facial acne [6]; Wk26 (201/367)): 54.8%
success rates, facial acne (moderate facial acne [6]; Wk52 (233/350)): 66.6%
subjects who reported that acne had no effect on quality of life (moderate facial acne [6]; week 52 (92/171), 22.6% at Baseline): 53.8%
Severe AEs considered related to trifarotene therapy, subjects [7]: 6 subjects
Severe related AE: dermatitis allergic, number [7]: 1
Severe related AE: skin irritation, number [7]: 4
Severe related AE: sunburn, number [7]: 1
statistically significantly superior reductions in inflammatory and non-inflammatory lesions on the trunk, starting by week (moderate truncal acne [8]; PERFECT 1): 4 week
PGA Success (%) (moderate truncal acne [8]; trunk, Week 12, PERFECT 1): 35.7%
statistically significantly superior reductions in inflammatory and non-inflammatory lesions on the trunk, starting by week (moderate truncal acne [9]; PERFECT 2): 2 week
PGA Success (%) (moderate truncal acne [9]; trunk, Week 12, PERFECT 2): 42.6%
overall success rate in same subject for truncal acne (moderate truncal acne [10]; Wk12 (87/396)): 22.0%
overall success rate in same subject for truncal acne (moderate truncal acne [10]; Wk20 (138/375)): 36.8%
overall success rate in same subject for truncal acne (moderate truncal acne [10]; Wk26 (157/363)): 43.3%
overall success rate in same subject for truncal acne (moderate truncal acne [10]; Wk38 (177/355)): 49.9%
overall success rate in same subject for truncal acne (moderate truncal acne [10]; Wk52 (199/344)): 57.9%
PGA success rates (moderate truncal acne [10]; [11]): 38.6%
trunk IGA success rates (moderate truncal acne [10]; [11]): 26.6%
success rates (IGA) (moderate truncal acne [10]; [12]): 65.1%
success rates (PGA) (moderate truncal acne [10]; [12]): 66.9%
metabolic stability (keratinocytes): metabolically stable
